Test results published in patent US20260266848A1, “COMPOSITIONS AND METHODS FOR DIAGNOSING AND TREATING DYSTONIA” (Duke University, priority 2023, published 2026).
Values joined by “and” are separate entries in the source; they are usually repeats but may differ in a detail not shown here. Identical values can stand only once.

Tested on: DYT-TOR1A MEF EVs
Test: Quantitative LC-MS/MS proteomics of EVs from drug-treated DYT-TOR1A MEF cultures (ritonavir, salubrinal)
Type: cell-based, mouse
Conditions: 24 h

## CC(C)c1nc(CN(C)C(=O)N[C@H](C(=O)N[C@@H](Cc2ccccc2)C[C@H](O)[C@H](Cc2ccccc2)NC(=O)OCc2cncs2)C(C)C)cs1 [ritonavir]
20 μM ritonavir, p≤0.05
  DYT-TOR1A genotype-disrupted EV proteins (n=363) with significant changes in abundance following ritonavir treatment: > 60% and 63%
20 μM
  DYT-TOR1A genotype-dependent protein disruptions changed by ritonavir in the corrective direction: 95%
20 μM, independent of p-value, of 363 proteins
  putative DYT biomarkers with ritonavir effects on protein abundance in the corrective direction: 344/363
20 μM, uncorrected p<0.05, 1974 proteins
  DYT EV proteome significantly modified by ritonavir: 29%
DYT1+RTV/DYT1, 20 μM
  Acaa1a (ACAA1) EV abundance Log2_FC: 0.8675
  Ano6 (ANO6) EV abundance Log2_FC: 0.08584
  Ap1b1 (AP1B1) EV abundance Log2_FC: 1.328
  Arl8b (ARL8B) EV abundance Log2_FC: 0.4007
  Bzw2 (BZW2) EV abundance Log2_FC: 0.8082
  Cryab (CRYAB) EV abundance Log2_FC: 0.42
  DIst (DLST) EV abundance Log2_FC: −0.4459
  Ehd4 (EHD4) EV abundance Log2_FC: 0.07182
  Flna (FLNA) EV abundance Log2_FC: 0.3721
  Fscn1 (FSCN1) EV abundance Log2_FC: 0.402
  Gart (GART) EV abundance Log2_FC: 0.677
  Hist1h1b (H1-5) EV abundance Log2_FC: 0.9834
  Hnrnpc (HNRNPC) EV abundance Log2_FC: −0.1273
  Ipo9 (IPO9) EV abundance Log2_FC: 1.122
  Jam3 (JAM3) EV abundance Log2_FC: −1.301
  Lipg (LIPG) EV abundance Log2_FC: 1.299
  Lrrc59 (LRRC59) EV abundance Log2_FC: 0.1624
  Mapk3 (MAPK3) EV abundance Log2_FC: 1.986
  Mars (MARS1) EV abundance Log2_FC: 0.5148
  Mrc2 (MRC2) EV abundance Log2_FC: −0.09834
  Myh9 (MYH9) EV abundance Log2_FC: −0.00905
  Ndnf (NDNF) EV abundance Log2_FC: 0.4697
  Pcmt1 (PCMT1) EV abundance Log2_FC: 2.547
  Pi4ka (PI4KA) EV abundance Log2_FC: −0.3588
  Pitpnb (PITPNB) EV abundance Log2_FC: 0.7296
  Prpsap2 (PRPSAP2) EV abundance Log2_FC: −0.08407
  Psmc5 (PSMC5) EV abundance Log2_FC: 0.4559
  Psmd12 (PSMD12) EV abundance Log2_FC: 1.09
  Psme4 (PSME4) EV abundance Log2_FC: 1.371
  Ptma (PTMA) EV abundance Log2_FC: −0.8532
  Rap2b (RAP2B) EV abundance Log2_FC: 0.3342
  Rbm3 (RBM3) EV abundance Log2_FC: −0.1048
  Rhoa (RHOA) EV abundance Log2_FC: 0.1985
  Rpl10 (RPL10) EV abundance Log2_FC: 0.5214
  Rpl13a (RPL13A) EV abundance Log2_FC: 0.6732
  Rps13 (RPS13) EV abundance Log2_FC: 0.02007
  Sec31a (SEC31A) EV abundance Log2_FC: 0.8357
  Slc2a1 (SLC2A1) EV abundance Log2_FC: −0.03153
  Stom (STOM) EV abundance Log2_FC: 0.1986
  Tardbp (TARDBP) EV abundance Log2_FC: 0.2272
  Tgfb2 (TGFB2) EV abundance Log2_FC: −0.7218
  Tln1 (TLN1) EV abundance Log2_FC: 0.1451
  Tln2 (TLN2) EV abundance Log2_FC: 0.6441
  Tubb1 (TUBB1) EV abundance Log2_FC: −0.05972
  Usp7 (USP7) EV abundance Log2_FC: 1.189
  Wdr26 (WDR26) EV abundance Log2_FC: 1.2
  Zyx (ZYX) EV abundance Log2_FC: −0.3666
DYT + RTV/DYT, 20 μM
  Acaa1a (ACAA1) EV abundance Cohen's d: 1.381
  Ano6 (ANO6) EV abundance Cohen's d: 0.2001
  Ap1b1 (AP1B1) EV abundance Cohen's d: 3.258
  Arl8b (ARL8B) EV abundance Cohen's d: 0.9032
  Bzw2 (BZW2) EV abundance Cohen's d: 1.685
  Cryab (CRYAB) EV abundance Cohen's d: 0.7088
  DIst (DLST) EV abundance Cohen's d: −1.437
  Ehd4 (EHD4) EV abundance Cohen's d: 0.2557
  Flna (FLNA) EV abundance Cohen's d: 1.357
  Fscn1 (FSCN1) EV abundance Cohen's d: 2.995
  Gart (GART) EV abundance Cohen's d: 2.137
  Hist1h1b (H1-5) EV abundance Cohen's d: 1.182
  Hnrnpc (HNRNPC) EV abundance Cohen's d: −0.2031
  Ipo9 (IPO9) EV abundance Cohen's d: 4.135
  Jam3 (JAM3) EV abundance Cohen's d: −2.624
  Lipg (LIPG) EV abundance Cohen's d: 2.834
  Lrrc59 (LRRC59) EV abundance Cohen's d: 0.8879
  Mapk3 (MAPK3) EV abundance Cohen's d: 2.384
  Mars (MARS1) EV abundance Cohen's d: 2.211
  Mrc2 (MRC2) EV abundance Cohen's d: −0.4039
  Myh9 (MYH9) EV abundance Cohen's d: −0.03876
  Ndnf (NDNF) EV abundance Cohen's d: 0.353
  Pcmt1 (PCMT1) EV abundance Cohen's d: 5.975
  Pi4ka (PI4KA) EV abundance Cohen's d: −0.6453
  Pitpnb (PITPNB) EV abundance Cohen's d: 2.824
  Prpsap2 (PRPSAP2) EV abundance Cohen's d: −0.1421
  Psmc5 (PSMC5) EV abundance Cohen's d: 2.883
  Psmd12 (PSMD12) EV abundance Cohen's d: 10.6
  Psme4 (PSME4) EV abundance Cohen's d: 3.22
  Ptma (PTMA) EV abundance Cohen's d: −2.366
  Rap2b (RAP2B) EV abundance Cohen's d: 0.7129
  Rbm3 (RBM3) EV abundance Cohen's d: −0.4328
  Rhoa (RHOA) EV abundance Cohen's d: 0.3039
  Rpl10 (RPL10) EV abundance Cohen's d: 0.7944
  Rpl13a (RPL13A) EV abundance Cohen's d: 0.9222
  Rps13 (RPS13) EV abundance Cohen's d: 0.06202
  Sec31a (SEC31A) EV abundance Cohen's d: 4.402
  Slc2a1 (SLC2A1) EV abundance Cohen's d: −0.04516
  Stom (STOM) EV abundance Cohen's d: 0.4181
  Tardbp (TARDBP) EV abundance Cohen's d: 0.6116
  Tgfb2 (TGFB2) EV abundance Cohen's d: −1.388
  Tln1 (TLN1) EV abundance Cohen's d: 1.026
  Tln2 (TLN2) EV abundance Cohen's d: 1.031
  Tubb1 (TUBB1) EV abundance Cohen's d: −0.1131
  Usp7 (USP7) EV abundance Cohen's d: 7.143
  Wdr26 (WDR26) EV abundance Cohen's d: 3.714
  Zyx (ZYX) EV abundance Cohen's d: −0.7038
DYT-TOR1A MEF EVs, 20 μM each
  Pearson r between ritonavir and salubrinal effects on putative DYT-TOR1A biomarker proteins: 0.47
